Consider 15 compounds from patent publication US6984649B1, “Pyridine derivatives” (Bayer Aktiengesellschaft, priority 2000, dated 2006).

The structures appear in SMILES notation. Some results are limits rather than exact numbers.

In the experiment the target is T1, human IKK-β (Homo sapiens, UniProt O14920).
T1 construct: A cDNA fragment encoding human IKK-β open reading frame was generated by PCR; His tag (from pcDNA3.1/His C); made in house; host or cells: Sf21 insect cells (baculovirus); substrate made in E. coli
T1 sequence (O14920 1-756): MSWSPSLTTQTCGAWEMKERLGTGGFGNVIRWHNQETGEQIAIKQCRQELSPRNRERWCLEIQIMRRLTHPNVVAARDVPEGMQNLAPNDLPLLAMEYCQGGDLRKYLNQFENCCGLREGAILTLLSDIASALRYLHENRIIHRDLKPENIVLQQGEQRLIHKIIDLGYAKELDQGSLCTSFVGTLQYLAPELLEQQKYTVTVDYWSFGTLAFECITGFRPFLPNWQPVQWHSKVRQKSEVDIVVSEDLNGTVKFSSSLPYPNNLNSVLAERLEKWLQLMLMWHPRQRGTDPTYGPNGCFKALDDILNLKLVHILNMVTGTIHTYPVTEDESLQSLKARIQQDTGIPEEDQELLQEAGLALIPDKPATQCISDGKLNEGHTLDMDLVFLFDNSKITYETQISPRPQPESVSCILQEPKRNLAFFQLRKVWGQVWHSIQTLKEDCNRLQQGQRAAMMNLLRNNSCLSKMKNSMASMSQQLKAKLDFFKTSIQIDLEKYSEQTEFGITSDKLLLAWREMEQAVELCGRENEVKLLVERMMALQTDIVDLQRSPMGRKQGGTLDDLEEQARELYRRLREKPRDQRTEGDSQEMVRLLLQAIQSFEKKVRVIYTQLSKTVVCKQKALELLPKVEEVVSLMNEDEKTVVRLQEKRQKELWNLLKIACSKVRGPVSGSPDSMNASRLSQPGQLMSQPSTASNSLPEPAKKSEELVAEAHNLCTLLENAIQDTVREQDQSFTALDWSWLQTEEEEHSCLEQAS
Put plainly: IKK-β kinase inhibitory assay. It counts as biochemical. The conditions noted are these: compounds as yielded by solid phase synthesis, purity about 40 to 90%, read-out: In vitro activity grade (In vitro IC50). In outline: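 Radiometric read-out: streptavidin capture of 33P-labelled bio-GST-IκBα(1-54), 0.2 μM, after a 2 h room-temperature reaction started with ATP/[γ-33P]ATP. Enzyme was recombinant His-tagged human IKK-β expressed in Sf21 insect cells, used at 0.6 μg/ml in Tris-HCl pH 7.6/MgCl2 kinase buffer. Compounds added in 2.5% DMSO.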
As a reminder, the IC50 is the concentration needed to halve the response being measured. For `CCC(=O)NCc1c(C2CCCNC2)cc(-c2ccccc2O)nc1N` (stereo not drawn) [Example 23-06], the IC50 fell in the range of 500 to 2000 nM.

`CC(=O)NCc1c(C2CCNCC2)cc(-c2c(O)cccc2OCC2CC2)nc1N` [Example 23-07]: the half-maximal inhibitory concentration (IC50) is < 500 nM.

Turning to `CC(C)OC(=O)NCc1c(C2CCCNC2)cc(-c2c(O)cccc2OCC2CC2)nc1N` (stereo not drawn) [Example 23-08], the 50% inhibitory concentration (IC50) is < 500 nM.

Turning to `CC(C)COC(=O)NCc1c(C2CCCNC2)cc(-c2c(O)cccc2OCC2CC2)nc1N` (stereo not drawn) [Example 23-09], the IC50 is < 500 nM.

Turning to `CC(C)(C)COC(=O)NCc1c(C2CCCNC2)cc(-c2c(O)cccc2OCC2CC2)nc1N` (stereo not drawn) [Example 23-10], the IC50 was < 500 nM.

As for `CN(C)C(=O)NCc1c(C2CCCNC2)cc(-c2c(O)cccc2OCC2CC2)nc1N` (stereo not drawn) [Example 23-11], the IC50 is < 500 nM.

In the case of `CCCNC(=O)NCc1c(C2CCCNC2)cc(-c2c(O)cccc2OCC2CC2)nc1N` (stereo not drawn) [Example 23-12], the concentration for half-maximal inhibition (IC50) was < 500 nM.

Turning to `NC(=O)NCc1c(C2CCCNC2)cc(-c2c(O)cccc2OCC2CC2)nc1N` (stereo not drawn) [Example 23-13], the 50% inhibitory concentration (IC50) is < 500 nM.

As for `Nc1nc(-c2c(O)cccc2OCC2CC2)cc(C2CCCNC2)c1CNC(=O)Nc1ccccc1` (stereo not drawn) [Example 23-14], the half-maximal inhibitory concentration (IC50) is < 500 nM.

As to `Nc1nc(-c2c(O)cccc2OCC2CC2)cc(C2CCCNC2)c1CNC(=S)Nc1ccccc1` (stereo not drawn) [Example 23-15], the IC50 is < 500 nM.

Take `CC(C)OC(=O)N1Cc2c(C3CCCNC3)cc(-c3c(O)cccc3OCC3CC3)nc2NC1=O` (stereo not drawn) [Example 24-05]: the IC50 was < 500 nM.

`CC(C)COC(=O)N1Cc2c(C3CCCNC3)cc(-c3c(O)cccc3OCC3CC3)nc2NC1=O` (stereo not drawn) [Example 24-06]: the half-inhibitory concentration (IC50) is < 500 nM.

As for `CC(C)(C)COC(=O)N1Cc2c(C3CCCNC3)cc(-c3c(O)cccc3OCC3CC3)nc2NC1=O` (stereo not drawn) [Example 24-07], the IC50 was < 500 nM.

Consider `CN(C)C(=O)N1Cc2c(C3CCCNC3)cc(-c3c(O)cccc3OCC3CC3)nc2NC1=O` (stereo not drawn) [Example 24-08], for which the IC50 is < 500 nM.

For `NC(=O)N1Cc2c(C3CCCNC3)cc(-c3c(O)cccc3OCC3CC3)nc2NC1=O` (stereo not drawn) [Example 24-10], the IC50 was < 500 nM.
